Measured values published in the supplement of paper PMC11061612.

Assays:
Alisertib = compound: COc1cc(Nc2ncc3c(n2)-c2ccc(Cl)cc2C(c2c(F)cccc2OC)=NC3)ccc1C(=O)O [Alisertib]; conditions: max 10 µM
Outline: (§1)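 Cancer cell lines were dosed for 72 hours (final DMSO typically 0.2%) after 24 hours at 37°C and 5% CO2 in 1536-well plates containing 7.5 μl DMEM/F12 or RPMI with 10% FBS. Viability came from CellTiter-Glo 2.0 luminescence, scaled between blank-well and DMSO-well means, and dose responses were fitted to a two-parameter logistic curve with a non-linear mixed effects model. The single-agent IC50 was obtained from this fit.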

SN-38 = compound: CCc1c2c(nc3ccc(O)cc13)-c1cc3c(c(=O)n1C2)COC(=O)[C@]3(O)CC [SN-38]; conditions: max 0.3 µM
Outline: as §1

Taselisib = compound: Cc1nc(-c2cn3c(n2)-c2ccc(-c4cnn(C(C)(C)C(N)=O)c4)cc2OCC3)n(C(C)C)n1 [Taselisib]; conditions: max 10 µM
Outline: as §1

Olaparib = compound: O=C(c1cc(Cc2n[nH]c(=O)c3ccccc23)ccc1F)N1CCN(C(=O)C2CC2)CC1 [Olaparib]
Outline: as §1

Doxorubicin = compound: COc1cccc2c1C(=O)c1c(O)c3c(c(O)c1C2=O)C[C@@](O)(C(=O)CO)C[C@@H]3O[C@H]1C[C@H](N)[C@H](O)[C@H](C)O1 [Doxorubicin]; conditions: max 1 µM
Outline: as §1

Savolitinib = compound: C[C@@H](c1ccc2nccn2c1)n1nnc2ncc(-c3cnn(C)c3)nc21 [Savolitinib]; conditions: max 1 µM
Outline: as §1

AZD7648 = compound: Cc1cc2ncnn2cc1Nc1ncc2c(n1)n(C1CCOCC1)c(=O)n2C [AZD7648]; conditions: max 10 µM
Outline: as §1

AZD0156 = compound: CN(C)CCCOc1ccc(-c2ccc3ncc4c(c3c2)n(C2CCOCC2)c(=O)n4C)cn1 [AZD0156]; conditions: max 3 µM
Outline: as §1

Dasatinib = compound: CC1=C(C(=CC=C1)Cl)NC(=O)C2=CN=C(S2)NC3=CC(=NC(=N3)C)N4CCN(CC4)CCO [Dasatinib]; conditions: max 2 µM
Outline: as §1

Capivasertib = compound: C1CN(CCC1(C(=O)N[C@@H](CCO)C2=CC=C(C=C2)Cl)N)C3=NC=NC4=C3C=CN4 [Capivasertib]
Outline: as §1

AZD6738 = compound: C[C@@H]1COCCN1C2=NC(=NC(=C2)C3(CC3)[S@](=N)(=O)C)C4=C5C=CNC5=NC=C4 [AZD6738]; conditions: max 10 µM
Outline: as §1

AZD1775 = compound: C=CCn1c(=O)c2cnc(Nc3ccc(N4CCN(C)CC4)cc3)nc2n1-c1cccc(C(C)(C)O)n1 [AZD1775]; conditions: max 3 µM
Outline: as §1

Lapatinib = compound: CS(=O)(=O)CCNCc1ccc(-c2ccc3ncnc(Nc4ccc(OCc5cccc(F)c5)c(Cl)c4)c3c2)o1 [Lapatinib]; conditions: max 10 µM
Outline: as §1

Palbociclib = compound: CC(=O)c1c(C)c2cnc(Nc3ccc(N4CCNCC4)cn3)nc2n(C2CCCC2)c1=O [Palbociclib]; conditions: max 10 µM
Outline: as §1

AZD1390 = compound: CC(C)n1c(=O)n(C)c2cnc3cc(F)c(-c4ccc(OCCCN5CCCCC5)nc4)cc3c21 [AZD1390]; conditions: max 0.3 µM
Outline: as §1

Prexasertib = compound: COc1cccc(OCCCN)c1-c1cc(Nc2cnc(C#N)cn2)n[nH]1 [Prexasertib]; conditions: max 1 µM
Outline: as §1

Gefitinib = compound: COc1cc2ncnc(Nc3ccc(F)c(Cl)c3)c2cc1OCCCN1CCOCC1 [Gefitinib]; conditions: max 10 µM
Outline: as §1

SG3199 = compound: CC1=CN2[C@@H](C1)C=NC3=CC(=C(C=C3C2=O)OC)OCCCCCOC4=C(C=C5C(=C4)N=C[C@@H]6CC(=CN6C5=O)C)OC [SG3199]; conditions: max 0.001 µM
Outline: as §1

Trametinib = compound: CC(=O)Nc1cccc(-n2c(=O)n(C3CC3)c(=O)c3c(Nc4ccc(I)cc4F)n(C)c(=O)c(C)c32)c1 [Trametinib]; conditions: max 1 µM
Outline: as §1

AZD4320 = compound: CN(CC[C@H](CSC1=CC=CC=C1)NC2=C(C=C(C=C2)S(=O)(=O)NC(=O)C3=CC=C(C=C3)N4CCC(CC4)[C@H](C5=CC=CC=C5C6=CC=C(C=C6)Cl)O)S(=O)(=O)C(F)(F)F)CCO [AZD4320]; conditions: max 1 µM
Outline: as §1

AZD8186 = compound: C[C@@H](Nc1cc(F)cc(F)c1)c1cc(C(=O)N(C)C)cc2c(=O)cc(N3CCOCC3)oc12 [AZD8186]; conditions: max 3 µM
Outline: as §1

Venetoclax = compound: CC1(C)CCC(CN2CCN(c3ccc(C(=O)NS(=O)(=O)c4ccc(NCC5CCOCC5)c([N+](=O)[O-])c4)c(Oc4cnc5[nH]ccc5c4)c3)CC2)=C(c2ccc(Cl)cc2)C1 [Venetoclax]; conditions: max 1 µM
Outline: as §1

AZD5153 = compound: COc1nnc2ccc(N3CCC(c4ccc(OCCN5CCN(C)C(=O)[C@H]5C)cc4)CC3)nn12 [AZD5153]; conditions: max 1 µM
Outline: as §1

Selumetinib = compound: Cn1cnc2c(F)c(Nc3ccc(Br)cc3Cl)c(C(=O)NOCCO)cc21 [Selumetinib]; conditions: max 10 µM
Outline: as §1

Crizotinib = compound: C[C@@H](Oc1cc(-c2cnn(C3CCNCC3)c2)cnc1N)c1c(Cl)ccc(F)c1Cl [Crizotinib]; conditions: max 10 µM
Outline: as §1

AZD2811 = compound: CCN(CCO)CCCOc1ccc2c(Nc3cc(CC(=O)Nc4cccc(F)c4)[nH]n3)ncnc2c1 [AZD2811]; conditions: max 1 µM
Outline: as §1

AZD5991 = compound: Cc1c2c(nn1C)CSCc1cc(n(C)n1)CSc1cc(c3ccccc3c1)OCCCc1c(C(=O)O)n(C)c3c-2c(Cl)ccc13 [AZD5991]; conditions: max 1 µM
Outline: as §1

| Cell Line | IC50, cell viability 72 h (Alisertib) [nM] | IC50, cell viability 72 h (SN-38) [nM] | IC50, cell viability 72 h (Taselisib) [nM] | IC50, cell viability 72 h (Olaparib; max 10 µM) [nM] | IC50, cell viability 72 h (Doxorubicin) [nM] | IC50, cell viability 72 h (Savolitinib) [nM] | IC50, cell viability 72 h (AZD7648) [nM] | IC50, cell viability 72 h (AZD0156) [nM] | IC50, cell viability 72 h (Dasatinib) [nM] | IC50, cell viability 72 h (Capivasertib; max 10 µM) [nM] | IC50, cell viability 72 h (AZD6738) [nM] | IC50, cell viability 72 h (AZD1775) [nM] | IC50, cell viability 72 h (Lapatinib) [nM] | IC50, cell viability 72 h (Palbociclib) [nM] | IC50, cell viability 72 h (AZD1390) [nM] | IC50, cell viability 72 h (Prexasertib) [nM] | IC50, cell viability 72 h (Gefitinib) [nM] | IC50, cell viability 72 h (SG3199) [nM] | IC50, cell viability 72 h (Trametinib) [nM] | IC50, cell viability 72 h (AZD4320) [nM] | IC50, cell viability 72 h (AZD8186) [nM] | IC50, cell viability 72 h (Venetoclax) [nM] | IC50, cell viability 72 h (AZD5153) [nM] | IC50, cell viability 72 h (Selumetinib) [nM] | IC50, cell viability 72 h (Crizotinib) [nM] | IC50, cell viability 72 h (AZD2811) [nM] | IC50, cell viability 72 h (Olaparib; max 3 µM) [nM] | IC50, cell viability 72 h (Capivasertib; max 3 µM) [nM] | IC50, cell viability 72 h (AZD5991) [nM] |
| --- | --- | --- | --- | --- | --- | --- | --- | --- | --- | --- | --- | --- | --- | --- | --- | --- | --- | --- | --- | --- | --- | --- | --- | --- | --- | --- | --- | --- | --- |
| NCI-H1048 (Small Cell Lung Carcinoma) | 497 | 2.99 | 348 | > 10000 | 261 | > 1000 | > 10000 | > 3000 | > 2000 | 9210 | > 10000 | 798 | > 10000 | > 10000 | > 300 | 132 | > 10000 | > 1 | > 1000 | 505 | > 3000 | > 1000 | > 1000 | > 10000 | > 10000 | 323 |  |  |  |
| M14 (Melanoma) |  |  |  |  |  |  |  | > 3000 |  |  |  | 624 |  |  |  |  |  |  |  |  |  |  |  |  |  |  | > 3000 | > 3000 |  |
| HT-144 (Melanoma) | > 10000 | 68.1 | 5010 | > 10000 | > 1000 | > 1000 | > 10000 | > 3000 | > 2000 | 5450 | 3480 | 250 | 8830 | > 10000 | > 300 | 139 | > 10000 | > 1 | 17.9 | > 1000 | > 3000 | > 1000 | 981 | 632 | 4710 | > 1000 |  |  | 221 |
| SK-N-DZ (Neuroblastoma) | 256 | 24.7 | > 10000 | > 10000 | 748 | > 1000 | > 10000 | > 3000 | > 2000 | > 10000 | 2390 | 278 | 5560 | 5330 | > 300 | 16.9 | > 10000 | > 1 | > 1000 | 628 | > 3000 | > 1000 | 294 | > 10000 | 1860 | > 1000 |  |  | > 1000 |
| DK-MG (Glioblastoma) | > 10000 | > 300 | > 10000 | > 10000 | > 1000 | > 1000 | > 10000 | > 3000 | > 2000 | > 10000 | > 10000 | 2150 | > 10000 | > 10000 | > 300 | > 1000 | > 10000 | > 1 | 375 | > 1000 | 2850 | > 1000 | 803 | > 10000 | 4990 | > 1000 |  |  | > 1000 |
| C2BBe1 (Colorectal Carcinoma) | > 10000 | > 300 | 2990 | > 10000 | > 1000 | > 1000 | > 10000 | > 3000 | > 2000 | > 10000 | > 10000 | 2700 | > 10000 | > 10000 | > 300 | > 1000 | > 10000 | > 1 | 818 | > 1000 | > 3000 | > 1000 | > 1000 | > 10000 | > 10000 | > 1000 |  |  | > 1000 |
| TK (B-Cell Non-Hodgkin's Lymphoma) | 2790 | 16.7 | > 10000 | > 10000 | > 1000 | > 1000 | > 10000 | > 3000 | > 2000 | > 10000 | 1020 | 293 | > 10000 | > 10000 | > 300 | 10.8 | > 10000 | > 1 | > 1000 |  | > 3000 | 46.2 | > 1000 | > 10000 | > 10000 | > 1000 |  |  | > 1000 |
| NCI-H2170 (Squamous Cell Lung Carcinoma) | 1100 | 13.6 | 1540 | > 10000 | 539 | > 1000 | > 10000 | > 3000 | > 2000 | 5470 | 7670 | 678 | 362 | > 10000 | > 300 | 46.8 | 1980 | > 1 | > 1000 | 665 | > 3000 | > 1000 | > 1000 | > 10000 | 7380 | 391 |  |  | > 1000 |
| RS4-11 (B-Lymphoblastic Leukemia) | 32.2 | 4.79 | 7520 | > 10000 | 460 | > 1000 | > 10000 | > 3000 | > 2000 | 9400 | 1390 | 268 | > 10000 | 4980 | > 300 | 16.7 | > 10000 | > 1 | > 1000 | 3.82 | > 3000 | 5.79 | 191 | > 10000 | 1520 | 8.84 |  |  | 723 |
